The results in this text go back to patent US20050256003A1, “Novel herbicides” (priority 2002, published 2005).

For this assay, the system named is monocotyledonous and dicotyledonous test plants. The assay can be described thus: Post-emergence herbicidal action. It counts as in vivo. The arrangement: key: 10=total damage; 0=no action; Ratings of from 10 to 7 (especially from 10 to 8) indicate good to very good herbicidal action. The conditions noted are these: 250 g a.i./ha, about 18 days, rating 0-10. The protocol: Post-Emergence Herbicidal Action
In a greenhouse, monocotyledonous and dicotyledonous test plants are grown in standard soil in plastic pots and at the 4- to 6-leaf stage are sprayed with an aqueous suspension of the test compounds of formula I prepared from a 25% wettable powder (Example F3, b) according to WO 97/34485) or with an emulsion of the test compounds of formula I prepared from a 25% emulsifiable concentrate (Example F1, c) according to WO 97/34485), in a concentration corresponding to 125 g or 250 g of active ingredient/ha (500 litres of water/ha). The test plants are then grown on in a greenhouse under optimum conditions. After a test duration of about 18 days, the test is evaluated in accordance with a scale of nine ratings (10=total damage, 0=no action). Ratings of from 10 to 7 (especially from 10 to 8) indicate good to very good herbicidal action.

Turning to `COc1nn(Cc2nc(C(F)(F)F)ccc2C(=O)C2=C(O)CCCC2=O)c(=O)n1C1CC1` [Compound A1.031], the “Post-emergence action, Amaranthus” value is given as 9; the “Post-emergence action, Chenopodium” value stood at 10; the “Post-emergence action, Echinochloa” value was 7; the “Post-emergence action, Euphorbia” value was found to be 8. Moreover, the “Post-emergence action, Ipomea” value was found to be 9; the “Post-emergence action, Sinapis” value was determined as 8; the “Post-emergence action, Stellaria” value is 9; the “Post-emergence action, Xanthium” value came out at 9.

In the case of `CCOc1nn(Cc2nc(C(F)(F)F)ccc2C(=O)C2=C(O)CCCC2=O)c(=O)n1C` [Compound A1.043], the “Post-emergence action, Amaranthus” value is on record as 9; the “Post-emergence action, Chenopodium” value stood at 9; the “Post-emergence action, Echinochloa” value is recorded as 7; the “Post-emergence action, Euphorbia” value came to 7. The “Post-emergence action, Ipomea” value is reported as 9; the “Post-emergence action, Sinapis” value is on record as 6; the “Post-emergence action, Stellaria” value turned out to be 9; the “Post-emergence action, Xanthium” value was 9.

For the molecule `COc1nn(Cc2nc(C(F)(F)F)ccc2C(=O)c2cnn(C)c2O)c(=O)n1C1CC1` [Compound B1.039], the “Post-emergence action, Amaranthus” value was determined as 6; the “Post-emergence action, Chenopodium” value is 8; the “Post-emergence action, Echinochloa” value turned out to be 9; the “Post-emergence action, Euphorbia” value was found to be 9. Besides, the “Post-emergence action, Ipomea” value is reported as 8; the “Post-emergence action, Sinapis” value is recorded as 9; the “Post-emergence action, Stellaria” value came to 9; the “Post-emergence action, Xanthium” value turned out to be 8.

`CC(C)c1cn(-c2ccccc2)c(=O)n1Cc1nc(C(F)(F)F)ccc1C(=O)c1cnn(C)c1O` [Compound B1.158]: the “Post-emergence action, Amaranthus” value amounted to 7; the “Post-emergence action, Chenopodium” value was 8; the “Post-emergence action, Echinochloa” value is listed as 4; the “Post-emergence action, Euphorbia” value worked out at 7. Also, the “Post-emergence action, Ipomea” value is 8; the “Post-emergence action, Sinapis” value amounted to 7; the “Post-emergence action, Stellaria” value was found to be 7; the “Post-emergence action, Xanthium” value amounted to 5.

Consider `Cn1c(C(F)(F)F)nn(Cc2nc(C(F)(F)F)ccc2C(=O)C2=C(O)CCCC2=O)c1=O` [Compound A1.007], for which the “Post-emergence action, Amaranthus” value stood at 9; the “Post-emergence action, Chenopodium” value worked out at 10; the “Post-emergence action, Echinochloa” value is on record as 8; the “Post-emergence action, Euphorbia” value is recorded as 4. Also, the “Post-emergence action, Ipomea” value came to 9; the “Post-emergence action, Sinapis” value was 8; the “Post-emergence action, Stellaria” value came out at 7; the “Post-emergence action, Xanthium” value came to 9.

As for `Cn1ncc(C(=O)c2ccc(C(F)(F)F)nc2Cn2c(=O)oc3cc(Cl)ccc32)c1O` [Compound B1.194], the “Post-emergence action, Amaranthus” value is listed as 9; the “Post-emergence action, Chenopodium” value is given as 9; the “Post-emergence action, Echinochloa” value came to 9; the “Post-emergence action, Euphorbia” value is 9. Moreover, the “Post-emergence action, Ipomea” value amounted to 7; the “Post-emergence action, Sinapis” value is reported as 7; the “Post-emergence action, Stellaria” value turned out to be 8; the “Post-emergence action, Xanthium” value is recorded as 9.

For `CN1CCN(Cc2nc(C(F)(F)F)ccc2C(=O)C2=C(O)CCCC2=O)C1=S` [Compound A1.202], the “Post-emergence action, Amaranthus” value stood at 9; the “Post-emergence action, Chenopodium” value is 8; the “Post-emergence action, Echinochloa” value was determined as 8; the “Post-emergence action, Euphorbia” value is 9. The “Post-emergence action, Ipomea” value came out at 9; the “Post-emergence action, Sinapis” value turned out to be 8; the “Post-emergence action, Stellaria” value was found to be 7; the “Post-emergence action, Xanthium” value is recorded as 9.

On to `CSC(=O)n1c(C)cc(=O)n1Cc1nc(C(F)(F)F)ccc1C(=O)C1=C(O)C(C)(C)C(=O)C(C)(C)C1=O` [Compound A8.062], for which the “Post-emergence action, Amaranthus” value is on record as 9; the “Post-emergence action, Chenopodium” value is on record as 10; the “Post-emergence action, Echinochloa” value turned out to be 9; the “Post-emergence action, Euphorbia” value is on record as 9. The “Post-emergence action, Ipomea” value is given as 8; the “Post-emergence action, Sinapis” value was 9; the “Post-emergence action, Stellaria” value was found to be 5; the “Post-emergence action, Xanthium” value amounted to 0.

Take `COc1nn(Cc2nc(C(F)(F)F)ccc2C(=O)C2=C(O)C(C)(C)C(=O)C(C)(C)C2=O)c(=O)s1` [Compound A8.095]: the “Post-emergence action, Amaranthus” value turned out to be 9; the “Post-emergence action, Chenopodium” value is 5; the “Post-emergence action, Echinochloa” value worked out at 9; the “Post-emergence action, Euphorbia” value came out at 0. The “Post-emergence action, Ipomea” value is on record as 9; the “Post-emergence action, Sinapis” value was 8; the “Post-emergence action, Stellaria” value stood at 7; the “Post-emergence action, Xanthium” value came to 8.

Regarding `COc1nn(Cc2nc(C(F)(F)F)ccc2C(=O)C2=C(O)C3CCC(C3)C2=O)c(=O)s1` (stereo not shown) [Compound A6.091], the “Post-emergence action, Amaranthus” value worked out at 8; the “Post-emergence action, Chenopodium” value amounted to 9; the “Post-emergence action, Echinochloa” value is given as 9; the “Post-emergence action, Euphorbia” value was 8. For the same molecule, the “Post-emergence action, Ipomea” value is reported as 8; the “Post-emergence action, Sinapis” value is on record as 8; the “Post-emergence action, Stellaria” value came to 9; the “Post-emergence action, Xanthium” value is 9.

As for `CCOc1nn(Cc2nc(C(F)(F)F)ccc2C(=O)c2cnn(C)c2O)c(=O)n1C1CC1` [Compound B1.056], the “Post-emergence action, Amaranthus” value is on record as 9; the “Post-emergence action, Chenopodium” value was 8; the “Post-emergence action, Echinochloa” value is reported as 9; the “Post-emergence action, Euphorbia” value is 9. Besides, the “Post-emergence action, Ipomea” value came out at 10; the “Post-emergence action, Sinapis” value came to 8; the “Post-emergence action, Stellaria” value was 7; the “Post-emergence action, Xanthium” value was 0.

In the case of `COc1nn(Cc2nc(C(F)(F)F)ccc2C(=O)C2=C(O)CCCC2=O)c(=O)n1C` [Compound A1.019], the “Post-emergence action, Amaranthus” value is recorded as 9; the “Post-emergence action, Chenopodium” value was found to be 9; the “Post-emergence action, Echinochloa” value turned out to be 8; the “Post-emergence action, Euphorbia” value is 9. For the same molecule, the “Post-emergence action, Ipomea” value was 9; the “Post-emergence action, Sinapis” value is 8; the “Post-emergence action, Stellaria” value is recorded as 8; the “Post-emergence action, Xanthium” value is reported as 9.

Take `COc1nn(Cc2nc(C(F)(F)F)ccc2C(=O)c2cnn(C)c2O)c(=O)n1C` [Compound B1.004]: the “Post-emergence action, Amaranthus” value stood at 8; the “Post-emergence action, Chenopodium” value turned out to be 9; the “Post-emergence action, Echinochloa” value was 8; the “Post-emergence action, Euphorbia” value is listed as 9. In addition, the “Post-emergence action, Ipomea” value is 8; the “Post-emergence action, Sinapis” value worked out at 10; the “Post-emergence action, Stellaria” value was 8; the “Post-emergence action, Xanthium” value was 9.

`CCOc1nn(Cc2nc(C(F)(F)F)ccc2C(=O)C2=C(O)CCCC2=O)c(=O)n1C` [Compound A1.037]: the “Post-emergence action, Amaranthus” value turned out to be 9; the “Post-emergence action, Chenopodium” value is reported as 9; the “Post-emergence action, Echinochloa” value is on record as 4; the “Post-emergence action, Euphorbia” value came out at 8. Further, the “Post-emergence action, Ipomea” value was found to be 9; the “Post-emergence action, Sinapis” value was 8; the “Post-emergence action, Stellaria” value is 8; the “Post-emergence action, Xanthium” value is on record as 9.

For `CCN1C(=O)N(Cc2nc(C(F)(F)F)ccc2C(=O)C2=C(O)CCCC2=O)C(=O)C1C` (racemic) [Compound A1.181], the “Post-emergence action, Amaranthus” value is on record as 9; the “Post-emergence action, Chenopodium” value stood at 8; the “Post-emergence action, Echinochloa” value worked out at 4; the “Post-emergence action, Euphorbia” value was found to be 8. Also, the “Post-emergence action, Ipomea” value was 8; the “Post-emergence action, Sinapis” value was 5; the “Post-emergence action, Stellaria” value is given as 7; the “Post-emergence action, Xanthium” value came to 8.

Turning to `CCN1C(=O)N(Cc2nc(C(F)(F)F)ccc2C(=O)C2=C(O)C(C)(C)C(=O)C(C)(C)C2=O)C(=O)C1C` (stereo not shown) [Compound A8.174], the “Post-emergence action, Amaranthus” value was determined as 8; the “Post-emergence action, Chenopodium” value is recorded as 9; the “Post-emergence action, Echinochloa” value is on record as 0; the “Post-emergence action, Euphorbia” value is given as 7. Besides, the “Post-emergence action, Ipomea” value is listed as 8; the “Post-emergence action, Sinapis” value is 7; the “Post-emergence action, Stellaria” value is given as 7; the “Post-emergence action, Xanthium” value amounted to 7.

For the molecule `Cc1nn(Cc2nc(C(F)(F)F)ccc2C(=O)C2=C(O)C3CCC(C3)C2=O)c(=O)o1` (stereo not shown) [Compound A6.097], the “Post-emergence action, Amaranthus” value turned out to be 7; the “Post-emergence action, Chenopodium” value stood at 9; the “Post-emergence action, Echinochloa” value amounted to 7; the “Post-emergence action, Euphorbia” value amounted to 7. Moreover, the “Post-emergence action, Ipomea” value is 7; the “Post-emergence action, Sinapis” value was determined as 8; the “Post-emergence action, Stellaria” value was determined as 9; the “Post-emergence action, Xanthium” value came out at 7.
